Data from article PMC6440985, “Heterogeneous drug tissue binding in brain regions of rats, Alzheimer’s patients and controls: impact on translational drug development” (Scientific Reports, 2019).
Like-named read-outs stand apart in the source and are kept apart here.

How the values were obtained:
[1] = Regional brain tissue binding by equilibrium dialysis, human post-mortem brain homogenate (control and AD donors); assay type: in vitro ADME; details: for fu,brain,ROI in CRB of AD patients compared to rat CRB: AD patients versus healthy Sprague-Dawley rats; for fraction unbound at 6 h, 1 µM: human, post-mortem brain tissue homogenate
[2] = on average; according to prior information; cited from earlier work
[3] = rat, brain homogenate
in vitro = details: Sprague-Dawley, rat, brain homogenate
[4] = design: method as in Loryan et al.[23]; details: Rat, ref Loryan et al.[23], cited from earlier work; for fu,brain,ROI Mean: biological replicates; for fu,brain,ROI Median: technical replicates
[5] = AD donors, BG, pH 7.4, AD donors, BG, biological replicates, 1 µM, 6 h, 37 °C, read-out: fu,brain,ROI Mean
[6] = AD donors, BG, pH 7.4, AD donors, BG, technical replicates, 1 µM, 6 h, 37 °C, read-out: fu,brain,ROI Median
[7] = AD donors, CRB, pH 7.4, AD donors, CRB, biological replicates, 1 µM, 6 h, 37 °C, read-out: fu,brain,ROI Mean
[8] = AD donors, CRB, pH 7.4, AD donors, CRB, technical replicates, 1 µM, 6 h, 37 °C, read-out: fu,brain,ROI Median
[9] = AD donors, FrCx, pH 7.4, AD donors, FrCx, biological replicates, 1 µM, 6 h, 37 °C, read-out: fu,brain,ROI Mean
[10] = AD donors, FrCx, pH 7.4, AD donors, FrCx, technical replicates, 1 µM, 6 h, 37 °C, read-out: fu,brain,ROI Median
[11] = AD donors, PrCx, pH 7.4, AD donors, PrCx, technical replicates, 1 µM, 6 h, 37 °C, read-out: fu,brain,ROI Median
[12] = control donors, BG, pH 7.4, Control donors, BG, biological replicates, 1 µM, 6 h, 37 °C, read-out: fu,brain,ROI Mean
[13] = control donors, BG, pH 7.4, Control donors, BG, technical replicates, 1 µM, 6 h, 37 °C, read-out: fu,brain,ROI Median
[14] = control donors, CRB, pH 7.4, Control donors, CRB, biological replicates, 1 µM, 6 h, 37 °C, read-out: fu,brain,ROI Mean
[15] = control donors, CRB, pH 7.4, Control donors, CRB, technical replicates, 1 µM, 6 h, 37 °C, read-out: fu,brain,ROI Median
[16] = control donors, FrCx, pH 7.4, Control donors, FrCx, biological replicates, 1 µM, 6 h, 37 °C, read-out: fu,brain,ROI Mean
[17] = control donors, FrCx, pH 7.4, Control donors, FrCx, technical replicates, 1 µM, 6 h, 37 °C, read-out: fu,brain,ROI Median
[18] = control donors, PrCx, pH 7.4, Control donors, PrCx, biological replicates, 1 µM, 6 h, 37 °C, read-out: fu,brain,ROI Mean
[19] = control donors, PrCx, pH 7.4, Control donors, PrCx, technical replicates, 1 µM, 6 h, 37 °C, read-out: fu,brain,ROI Median
[20] = AD group, within-group comparison
[21] = AD donors, PrCx, pH 7.4, AD donors, PrCx, biological replicates, 1 µM, 6 h, 37 °C, read-out: fu,brain,ROI Mean

| Compound | fu,brain,ROI in CRB of AD patients compared to rat CRB [1] | fraction unbound at 6 h, 1 µM [1, 5] | fraction unbound at 6 h, 1 µM [1, 6] | fraction unbound at 6 h, 1 µM [1, 7] | fraction unbound at 6 h, 1 µM [1, 8] | fraction unbound at 6 h, 1 µM [1, 9] | fraction unbound at 6 h, 1 µM [1, 10] | fraction unbound at 6 h, 1 µM [1, 11] | fraction unbound at 6 h, 1 µM [1, 12] | fraction unbound at 6 h, 1 µM [1, 13] | fraction unbound at 6 h, 1 µM [1, 14] | fraction unbound at 6 h, 1 µM [1, 15] | fraction unbound at 6 h, 1 µM [1, 16] | fraction unbound at 6 h, 1 µM [1, 17] | fraction unbound at 6 h, 1 µM [1, 18] | fraction unbound at 6 h, 1 µM [1, 19] | between region comparison of fu,brain,ROI [3] | fraction unbound at 6 h, 1 µM (in vitro; pH 7.4, fu,brain,ROI Mean) | fraction unbound at 6 h, 1 µM (in vitro; pH 7.4, fu,brain,ROI Median) | ratio of fu,brain,ROI in CRB compared to PrCx [1, 20] | also measured |
| --- | --- | --- | --- | --- | --- | --- | --- | --- | --- | --- | --- | --- | --- | --- | --- | --- | --- | --- | --- | --- | --- |
| COc1ccc2c(c1)c(CC(=O)O)c(C)n2C(=O)c1ccc(Cl)cc1 [Indomethacin, indomethacin] | twice as high | 0.089 | 0.089 | 0.149 | 0.116 | 0.103 | 0.095 | 0.08 | 0.073 | 0.071 | 0.113 | 0.109 | 0.088 | 0.088 | 0.079 | 0.083 | no differences in binding | 0.068 | 0.065 |  | plasma protein binding exceeding brain tissue binding [2]: 5 fold |
| CC12CC3CC(C)(C1)CC(N)(C3)C2 [Memantine, memantine] | twice as high | 0.114 | 0.111 | 0.152 | 0.142 | 0.114 | 0.117 | 0.103 | 0.092 | 0.093 | 0.113 | 0.116 | 0.094 | 0.092 | 0.088 | 0.086 | no differences in binding | 0.076 | 0.073 | ≥ 1.5 | fold higher fu,brain,ROI in CRB compared to PrCx ([1]; control group, within-group comparison): ≥ 1.3 fold; fraction unbound at 6 h, 1 µM [1, 21]: 0.099 |
| Cc1nc2n(c(=O)c1CCN1CCC(c3noc4cc(F)ccc34)CC1)CCCC2O (stereo not drawn) [Paliperidone, paliperidone] | twice as high | 0.249 | 0.249 | 0.374 |  | 0.237 | 0.216 | 0.224 | 0.186 | 0.192 | 0.217 | 0.207 | 0.197 | 0.198 | 0.189 | 0.183 | no differences in binding |  |  | ≥ 1.5 | fu,brain,ROI Median ([1]; AD donors, CRB, technical replicates, 1 µM, 6 h, 37 °C): 0.350; ratio of fu,brain,ROI in CRB compared to BG [1, 20]: 1.4; fold lower BTB in CRB compared to frontal and parietal cortices ([1]; AD patients, average): 1.5 fold; ratio of fu,brain,ROI AD versus control ([1]; CRB, between group comparison): 1.6; regional within-group comparison of fu,brain,ROI ([1]; control group, FrCx, PrCx, BG, CRB): uniform binding; fraction unbound at 6 h, 1 µM [1, 21]: 0.232; fu,brain,ROI Mean ([4]; BG): 0.128; fu,brain,ROI Median ([4]; BG): 0.128; fu,brain,ROI Mean ([4]; CRB): 0.145; fu,brain,ROI Median ([4]; CRB): 0.143; fu,brain,ROI Mean ([4]; FrCx): 0.144; fu,brain,ROI Median ([4]; FrCx): 0.138; fu,brain,ROI Mean ([4]; HIP): 0.157; fu,brain,ROI Median ([4]; HIP): 0.150; fu,brain,ROI Mean ([4]; WB): 0.141; fu,brain,ROI Median ([4]; WB): 0.151 |
